Data from patent US20170136008A1, “OXABICYCLOHEPTANES AND OXABICYCLOHEPTENES FOR THE TREATMENT OF OVARIAN CANCER” (priority 2014, published 2017).

Tests used:
[1] = tested on: PEO1-STOP (PEO-1s) ovarian cancer cell line; assay: MTT cytotoxicity assay, PEO1-STOP; assay type: cell-based, human; conditions: Homo sapiens, read-out: IC50, viability of ovarian cancer cell line
Method: (§1) SKOV-3 ovarian cancer cells were purchased from American Type Culture Collection (ATCC) (Manassas, Va.). SKOV-3 cells were cultured in McCoy's 5A medium (ATCC, Manassas, Va.) supplemented with 10% fetal bovine serum and 100 units/mL penicillin G sodium, 100 ug/mL streptomycin sulfate, and 292 μg/ml, L-glutamine (BioWhittaker, Wakersville, Md.). Luciferase-expressing cells were generated by infecting SKOV-3 cells with pCLNCX-luciferase retrovirus (SKOV-3-Luc) as previously reported (Wei, B. R. et al. 2009). Human OVCAR-8 ovarian cancer cells were provided by the National Cancer Institute (part of the NCI-60 collection). The PEO1, PEO4, and PEO6 ovarian cancer cell lines have previously been characterized (Langdon, S. P. et al. 1988) and were kindly provided by Dr. Ian Goldlust (National Center for Advancing Translational Sciences, Shady Grove, Md.). […]
(§2) Cell survival was measured by the 3-(4,5-dimethylthiazol-2-yl)-2,5-diphenyltetrazolium bromide (MTT, Invitrogen) assay. […] Absorbance values were determined at […] on a Spectra Max 250 spectrophotometer (Molecular Devices, Sunnyvale, Calif.). […] Cell viability was analyzed via the MTT assay as described above. […]

SKOV-3 cells = assay: Cell-cycle analysis (FACS), SKOV-3; assay type: cell-based, human
Method: (§3) For cell-cycle analysis, cells were washed with PBS and fixed overnight in ice-cold 70% ethanol and stored at 4° C. Cells were then centrifuged and resuspended in 100 U RNAse (Sigma-Aldrich), and incubated at 37° C. for 20 min. Propidiumidodide solution (Invitrogen, 500 μL, 50 μg/mL in DPBS) was added to each tube and incubated in the dark at 4° C. overnight. Flow cytometry analysis was performed with CellQuestPro and data analysis was completed with ModFit LT. All data is in triplicate and presented as a percent mean±SD.

[2] = tested on: HEK 293 human embryonic kidney cell lines overexpressing Pgp, MRP1, or ABCG2; assay: IC50 in ABC transporter-overexpressing HEK 293 lines; assay type: cell-based; conditions: HEK 293 overexpressing Pgp
Method: When HEK 293 human embryonic kidney cell lines overexpressing Pgp, MRP1, or ABCG2 (Robey, R. W. et al. 2005) were treated with equal concentration of LB100, the IC50s of the transfected lines were not different compared with parent (non-transporter-expressing) cells or in the presence of an inhibitor (tariquidar) (FIG. 5).

OVCAR-8 NT shRNA cells = assay: Cell viability (MTT) assay, OVCAR-8 NT shRNA; assay type: cell-based; conditions: Homo sapiens; OVCAR-8 NT shRNA (control)
Method: Cell survival was measured by the 3-(4,5-dimethylthiazol-2-yl)-2,5-diphenyltetrazolium bromide (MTT, Invitrogen) assay. Cells were seeded at a density of 5,000 cells per well in 96-well plates and incubated at 37° C. in humidified 5% CO2 for 24 hours. The 50% inhibitory concentration (IC50) values were defined as the drug concentrations required to reduce cellular proliferation to 50% of the untreated control well. […] All MTT assays were carried out according to the manufacturer's instructions (Molecular Probes, Eugen, Oreg.). Absorbance values were determined at […] on a Spectra Max 250 spectrophotometer (Molecular Devices, Sunnyvale, Calif.). All MTT assays were performed in triplicate. […] Cells were treated with both drugs for 72 h. Cell viability was analyzed via the MTT assay as described above. Experiments were performed in triplicate, and the data are presented as a percent mean±SD.
To stably knockdown expression of PP2AC, a pLKO.1-puro plasmid-based […] shRNA targeting the sequence: […] (clone ID:TRCN0000002483, Sigma-Aldrich) was employed (PP2AC-shRNA). Additionally, a non-targeting shRNA plasmid (NT-shRNA) that targets no known human sequence was utilized as a control. […]

OVCAR-8 cells = assay: Cell-cycle analysis (FACS), OVCAR-8; assay type: cell-based, human; conditions: LB100 2 μM
Method: as §3

[3] = tested on: PEO1-Missense (PEO-1m) ovarian cancer cell line; assay: MTT cytotoxicity assay, PEO1-Missense; assay type: cell-based, human; conditions: Homo sapiens, read-out: IC50, viability of ovarian cancer cell line
Method: as §1, §2

SMILES: CN1CCN(C(=O)C2C(C(=O)O)[C@H]3CC[C@@H]2O3)CC1 (stereo partly shown) [LB100]
- IC50 [1]: 6.9 ± 1 µM
- G1 (%) (SKOV-3 cells; 24 h, LB100 5 μM): 51.4 ± 1.5%
- G2/M (%) (SKOV-3 cells; 24 h, LB100 5 μM): 28.9 ± 1.2%
- S (%) (SKOV-3 cells; 24 h, LB100 5 μM): 19.7 ± 0.8%
- G1 (%) (SKOV-3 cells; 48 h, LB100 2 μM): 49.8 ± 0.5%
- G2/M (%) (SKOV-3 cells; 48 h, LB100 2 μM): 25.1±0.8%
- S (%) (SKOV-3 cells; 48 h, LB100 2 μM): 25.1 ± 0.3%
- G1 (%) (SKOV-3 cells; 48 h, LB100 5 μM): 47.2 ± 1.9%
- G2/M (%) (SKOV-3 cells; 48 h, LB100 5 μM): 25.1 ± 0.8%
- S (%) (SKOV-3 cells; 48 h, LB100 5 μM): 30.2 ± 3.1%
- G1 (%) (SKOV-3 cells; 48 h, LB100 10 μM): 36.8 ± 1.8%
- G2/M (%) (SKOV-3 cells; 48 h, LB100 10 μM): 32.1±1.6%
- S (%) (SKOV-3 cells; 48 h, LB100 10 μM): 31.1 ± 0.8%
- G1 (%) (SKOV-3 cells; 48 h, LB100 15 μM): 42.3 ± 1.6%
- G2/M (%) (SKOV-3 cells; 48 h, LB100 15 μM): 33.9±1.4%
- S (%) (SKOV-3 cells; 48 h, LB100 15 μM): 23.8 ± 0.2%
- IC50s of transfected lines compared with parent cells or in the presence of tariquidar [2]: not different
- IC50 (OVCAR-8 NT shRNA cells): 15.7 ± 1.3 µM
- G1 (%) (OVCAR-8 cells; 24 h): 45.4 ± 1.5%
- G2/M (%) (OVCAR-8 cells; 24 h): 17.6 ± 0.4%
- S (%) (OVCAR-8 cells; 24 h): 37.0 ± 1.6%
- G1 (%) (OVCAR-8 cells; 48 h): 55.3 ± 0.4%
- G2/M (%) (OVCAR-8 cells; 48 h): 14.9 ± 1.5%
- S (%) (OVCAR-8 cells; 48 h): 29.9 ± 1.1%
- IC50 [3]: 6.2 ± 1.5 µM
